Test results taken from US20120108666A1, “Treatment of Cell Proliferative Disorders” (priority 2006, published 2012).

Assays:
[1] = system: Syk-containing Jurkat cells; assay: Jurkat cell survival after seven days (FIG. 4); assay type: cell-based; settings: 50 μg/ml
Procedure: FIG. 4 illustrates the effect of AV 61S and AV 74S on Jurkat cell survival after a seven day period;
(§1) The jurkat E6.1 line is a Syk-deficient line; in fact, AV 61S after 7 days has no effect on this cell line (i.e., neither apoptosis nor inhibition, see […]). […] The viability study has been performed after 24 and 48 hours of incubation, each time for 3 evaluations; within 1, 3 and 6 hours.

PHA-activated PBMCs = assay: Inhibition of PHA-activated PBMCs (lymphocyte proliferation); assay type: cell-based, human; settings: varying concentrations
Procedure: as §1
FIGS. 1 and 2 show the effect of diluent on compounds of the invention.

[2] = system: jurkat E6.1 line (Syk-deficient); assay: E6.1 Jurkat cell survival after seven days (FIG. 3); assay type: cell-based; settings: after 7 days
Procedure: as §1

E6.1 Jurkat cells = assay: Viability of E6.1 Jurkat cells after 24 and 48 hours (FIGS. 18, 19); assay type: cell-based; settings: 24 and 48 hours of incubation
Procedure: FIG. 18 illustrates, in comparison with cyclosporin-treated Jurkat cells, the viability of E6.1 Jurkat cells treated with differing concentrations of AV 61S or AV 74S after 24 hours; and
FIG. 19 illustrates, in comparison with cyclosporin-treated Jurkat cells, the viability of E6.1 Jurkat cells treated with differing concentrations of AV 61S or AV 74S after 48 hours.
as §1

HL-60 cells = assay: XTT viability of HL-60 cells after 3 days, with and without piceatannol; assay type: cell-based, human; settings: for viability of HL-60 cells, XTT method: 3 days
Description: Secondly, the effect of compounds of the invention may be compared to the natural inhibitor of Syk, piceatannol.

SMILES | killing of Syk-containing Jurkat cells [1] | inhibitory effect on PHA-activated PBMCs (PHA-activated PBMCs; DMSO carrier) | inhibitory effect on PHA-activated PBMCs (PHA-activated PBMCs; PBS carrier) | effect on Syk-deficient jurkat E6.1 line (apoptosis, inhibition) [2] | killing of E6.1 Jurkat cells (viability study) (E6.1 Jurkat cells) | viability of HL-60 cells, XTT method (HL-60 cells; 50 μg/ml with Pic 10 μM) | viability of HL-60 cells, XTT method (HL-60 cells; 50 μg/ml with Pic 30 μM) | viability of HL-60 cells, XTT method (HL-60 cells; 50 μg/ml, no piceatannol) | viability of HL-60 cells, XTT method (HL-60 cells; 100 μg/ml with Pic 10 μM) | viability of HL-60 cells, XTT method (HL-60 cells; 100 μg/ml with Pic 30 μM) | viability of HL-60 cells, XTT method (HL-60 cells; 100 μg/ml, no piceatannol) | blocking of the inhibitory effect of AV 74S by piceatannol (HL-60 cells; AV 74S at 100 μg/ml, HL-60)
CC(CO)OCC(C)OCC(C)OCC(C)OCC(C)OCC(C)OCC(C)OC[C@H](Cc1ccccc1)NC(=O)CCc1ccc(O)cc1 (stereo partly drawn) [AV 61S] | ~100% | inhibitory effect | lesser inhibitory effect | no effect | do not kill them | 97 % of control | 83 % of control | 81 % of control | 59 % of control | 23 % of control | 36 % of control | 
Oc1cc(O)cc(/C=C/c2ccc(O)c(O)c2)c1 [piceatannol, reference compound] |  |  |  |  |  |  |  |  |  |  |  | at least partially blocks the inhibitory effect of AV 74S
